Measurements as given in US20250186405A1, “Compound For Use In Treating Narcolepsy” (Alkermes, Inc., priority 2023, published 2025).

System: subjects with idiopathic hypersomnia (IH)
Experiment: Part 6 POC IH: treatment-emergent adverse events, single doses, crossover
[1] = Total (any Compound A dose), N = 8

Method: Part 6 consisted of a 4-way, 4-period crossover study design in approximately 8 subjects (2 subjects per sequence; minimum of 4 subjects with 1 subject per sequence). […] Treatments were administered under fasted state.
Subjects were randomized to 1 of 4 sequences. […] No food was given for at least 3 hours after dose administration (i.e., fast can be broken after the 3-hour PK time point is collected). Water was allowed ad libitum except for 1 hour before and 1 hour after study drug administration. Safety assessments including AEs, safety ECGs, vital signs, and clinical laboratory tests were conducted, and plasma PK samples were collected.
Adverse events (AEs) and serious adverse events (SAEs) were monitored continuously until the completion of the study.
Eight subjects with IH were dosed in Part 6 (POC in IH) in a randomized 4-sequence 4-period cross-over design.

CS(=O)(=O)N[C@H]1CCCN2C(=O)COc3ccccc3C3CCC(CC3)OCC12 (stereo partly drawn) [Compound A, N-[(4S,4aR,7α,10α)-1,2,3,4,4a,5,7,8,9,10,16,17-dodecahydro-17-oxo-7,10-ethanopyrido[1,2-d][1,7,4]benzodioxaazacyclotridecin-4-yl]methanesulfonamide]
Any SAEs (25 mg single dose, N = 8): 0 n (%)
Any TEAE (25 mg single dose, N = 8): 7 (87.5) n (%)
Death (25 mg single dose, N = 8): 0 n (%)
Drug Related TEAE by Preferred Term: Cold sweat (25 mg single dose, N = 8): 1 (12.5) n (%)
Drug Related TEAE by Preferred Term: Dizziness (25 mg single dose, N = 8): 2 (25.0) n (%)
Drug Related TEAE by Preferred Term: Dysuria (25 mg single dose, N = 8): 1 (12.5) n (%)
Drug Related TEAE by Preferred Term: Feeling jittery (25 mg single dose, N = 8): 1 (12.5) n (%)
Drug Related TEAE by Preferred Term: Insomnia (25 mg single dose, N = 8): 2 (25.0) n (%)
Drug Related TEAE by Preferred Term: Micturition urgency (25 mg single dose, N = 8): 1 (12.5) n (%)
Drug Related TEAE by Preferred Term: Middle insomnia (25 mg single dose, N = 8): 1 (12.5) n (%)
Drug Related TEAE by Preferred Term: Palpitations (25 mg single dose, N = 8): 1 (12.5) n (%)
Drug Related TEAE by Preferred Term: Pollakiuria (25 mg single dose, N = 8): 4 (50.0) n (%)
Drug Related TEAE by Preferred Term: Supraventricular extrasystoles (25 mg single dose, N = 8): 1 (12.5) n (%)
Drug Related TEAE by Preferred Term: Tachycardia (25 mg single dose, N = 8): 1 (12.5) n (%)
Drug Related TEAE by Preferred Term: Visual impairment (25 mg single dose, N = 8): 1 (12.5) n (%)
Subjects with at least one TEAE (25 mg single dose, N = 8): 7 (87.5) n (%)
Subjects with at least one treatment-related TEAE (25 mg single dose, N = 8): 7 (87.5) n (%)
TEAE by Highest Relationship: Not Related (25 mg single dose, N = 8): 0 n (%)
TEAE by Highest Relationship: Related (25 mg single dose, N = 8): 7 (87.5) n (%)
TEAE by Highest Severity: Mild (25 mg single dose, N = 8): 6 (75.0) n (%)
TEAE by Highest Severity: Moderate (25 mg single dose, N = 8): 1 (12.5) n (%)
TEAE by Highest Severity: Severe (25 mg single dose, N = 8): 0 n (%)
TEAE by Preferred Term: Blood creatine phosphokinase increased (25 mg single dose, N = 8): 0 n (%)
TEAE by Preferred Term: Blood creatinine increased (25 mg single dose, N = 8): 0 n (%)
TEAE by Preferred Term: Cold sweat (25 mg single dose, N = 8): 1 (12.5) n (%)
TEAE by Preferred Term: Dermatitis contact (25 mg single dose, N = 8): 0 n (%)
TEAE by Preferred Term: Dizziness (25 mg single dose, N = 8): 2 (25.0) n (%)
TEAE by Preferred Term: Dysuria (25 mg single dose, N = 8): 1 (12.5) n (%)
TEAE by Preferred Term: Epistaxis (25 mg single dose, N = 8): 1 (12.5) n (%)
TEAE by Preferred Term: Feeling jittery (25 mg single dose, N = 8): 1 (12.5) n (%)
TEAE by Preferred Term: Headache (25 mg single dose, N = 8): 1 (12.5) n (%)
TEAE by Preferred Term: Insomnia (25 mg single dose, N = 8): 2 (25.0) n (%)
TEAE by Preferred Term: Micturition urgency (25 mg single dose, N = 8): 1 (12.5) n (%)
TEAE by Preferred Term: Middle insomnia (25 mg single dose, N = 8): 1 (12.5) n (%)
TEAE by Preferred Term: Nausea (25 mg single dose, N = 8): 0 n (%)
TEAE by Preferred Term: Neck pain (25 mg single dose, N = 8): 0 n (%)
TEAE by Preferred Term: Palpitations (25 mg single dose, N = 8): 1 (12.5) n (%)
TEAE by Preferred Term: Phlebitis (25 mg single dose, N = 8): 0 n (%)
TEAE by Preferred Term: Pollakiuria (25 mg single dose, N = 8): 4 (50.0) n (%)
TEAE by Preferred Term: Presyncope (25 mg single dose, N = 8): 0 n (%)
TEAE by Preferred Term: Skin irritation (25 mg single dose, N = 8): 0 n (%)
TEAE by Preferred Term: Steatorrhoea (25 mg single dose, N = 8): 0 n (%)
TEAE by Preferred Term: Supraventricular extrasystoles (25 mg single dose, N = 8): 1 (12.5) n (%)
TEAE by Preferred Term: Tachycardia (25 mg single dose, N = 8): 1 (12.5) n (%)
TEAE by Preferred Term: Urinary tract infection (25 mg single dose, N = 8): 0 n (%)
TEAE by Preferred Term: Vessel puncture site bruise (25 mg single dose, N = 8): 0 n (%)
TEAE by Preferred Term: Vessel puncture site pain (25 mg single dose, N = 8): 1 (12.5) n (%)
TEAE by Preferred Term: Visual impairment (25 mg single dose, N = 8): 1 (12.5) n (%)
TEAE by Preferred Term: Vomiting (25 mg single dose, N = 8): 0 n (%)
Tolerability (IH, 5, 12 and 25 mg): well tolerated
Subjects with at least one TEAE (IH, N = 8, all periods): 100%
AE Leading to Study Drug Discontinuation [1]: 0 n (%)
Any SAEs [1]: 0 n (%)
Any TEAE [1]: 8 n (%)
Death [1]: 0 n (%)
Drug Related TEAE by Preferred Term: Cold sweat [1]: 1 (12.5) n (%)
Drug Related TEAE by Preferred Term: Dizziness [1]: 2 (25.0) n (%)
Drug Related TEAE by Preferred Term: Dysuria [1]: 1 (12.5) n (%)
Drug Related TEAE by Preferred Term: Feeling jittery [1]: 1 (12.5) n (%)
Drug Related TEAE by Preferred Term: Insomnia [1]: 2 (25.0) n (%)
Drug Related TEAE by Preferred Term: Micturition urgency [1]: 1 (12.5) n (%)
Drug Related TEAE by Preferred Term: Middle insomnia [1]: 2 (25.0) n (%)
Drug Related TEAE by Preferred Term: Palpitations [1]: 1 (12.5) n (%)
Drug Related TEAE by Preferred Term: Pollakiuria [1]: 5 (62.5) n (%)
Drug Related TEAE by Preferred Term: Supraventricular extrasystoles [1]: 1 (12.5) n (%)
Drug Related TEAE by Preferred Term: Tachycardia [1]: 1 (12.5) n (%)
Drug Related TEAE by Preferred Term: Visual impairment [1]: 1 (12.5) n (%)
Subjects with at least one TEAE [1]: 8 n (%)
Subjects with at least one treatment-related TEAE [1]: 8 (100) n (%)
TEAE by Highest Relationship: Not Related [1]: 0 n (%)
TEAE by Highest Relationship: Related [1]: 8 n (%)
TEAE by Highest Severity: Mild [1]: 7 n (%)
TEAE by Highest Severity: Moderate [1]: 1 n (%)
TEAE by Highest Severity: Severe [1]: 0 n (%)
TEAE by Preferred Term: Blood creatine phosphokinase increased [1]: 1 n (%)
TEAE by Preferred Term: Blood creatinine increased [1]: 1 n (%)
TEAE by Preferred Term: Cold sweat [1]: 1 n (%)
TEAE by Preferred Term: Dermatitis contact [1]: 0 n (%)
TEAE by Preferred Term: Dizziness [1]: 4 n (%)
TEAE by Preferred Term: Dysuria [1]: 1 n (%)
TEAE by Preferred Term: Epistaxis [1]: 1 n (%)
TEAE by Preferred Term: Feeling jittery [1]: 1 n (%)
TEAE by Preferred Term: Headache [1]: 3 n (%)
TEAE by Preferred Term: Insomnia [1]: 2 n (%)
TEAE by Preferred Term: Micturition urgency [1]: 1 n (%)
TEAE by Preferred Term: Middle insomnia [1]: 2 n (%)
TEAE by Preferred Term: Nausea [1]: 1 n (%)
TEAE by Preferred Term: Neck pain [1]: 1 n (%)
TEAE by Preferred Term: Palpitations [1]: 1 n (%)
TEAE by Preferred Term: Phlebitis [1]: 1 n (%)
TEAE by Preferred Term: Pollakiuria [1]: 5 n (%)
TEAE by Preferred Term: Presyncope [1]: 1 n (%)
TEAE by Preferred Term: Skin irritation [1]: 1 n (%)
TEAE by Preferred Term: Steatorrhoea [1]: 1 n (%)
TEAE by Preferred Term: Supraventricular extrasystoles [1]: 1 n (%)
TEAE by Preferred Term: Tachycardia [1]: 1 n (%)
TEAE by Preferred Term: Urinary tract infection [1]: 1 n (%)
TEAE by Preferred Term: Vessel puncture site bruise [1]: 2 n (%)
TEAE by Preferred Term: Vessel puncture site pain [1]: 1 n (%)
TEAE by Preferred Term: Visual impairment [1]: 1 n (%)
TEAE by Preferred Term: Vomiting [1]: 0 n (%)
